Measurements from patent US20060052451A1, “Method” (priority 2002, published 2006).

Key:
PPAR alpha = target: T1, PPAR alpha (Rattus norvegicus, UniProt P37230); assay: PPAR alpha transactivation assay in COS-1 cells; format: cell-based; conditions: at 10 μM, mean±SD n=3
T1 construct: 25 ng of vector DNA carrying PPAR alpha, delta or gamma; expressed in transfected cells; host or cells: COS-1 (African green monkey kidney cells)
T1 sequence (P37230 1-468): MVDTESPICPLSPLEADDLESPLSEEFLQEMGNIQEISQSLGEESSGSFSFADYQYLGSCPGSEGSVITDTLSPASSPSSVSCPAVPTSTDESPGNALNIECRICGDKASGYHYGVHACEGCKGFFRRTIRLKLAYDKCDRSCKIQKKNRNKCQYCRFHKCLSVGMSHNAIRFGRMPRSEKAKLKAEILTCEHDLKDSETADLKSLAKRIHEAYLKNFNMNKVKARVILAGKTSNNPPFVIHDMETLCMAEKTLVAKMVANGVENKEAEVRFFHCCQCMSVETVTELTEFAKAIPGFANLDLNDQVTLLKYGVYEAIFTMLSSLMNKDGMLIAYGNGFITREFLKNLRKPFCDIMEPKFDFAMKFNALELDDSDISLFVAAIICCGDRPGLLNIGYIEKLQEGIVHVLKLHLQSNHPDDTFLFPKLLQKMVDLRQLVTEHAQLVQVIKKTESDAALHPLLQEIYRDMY

[1] = Plasma levels of PFOA after 11 days oral dosing in SD rats (LC/MS/MS); format: in vivo, rat; conditions: 25 mg/kg oral daily for 11 days, 24 hours after final administration
Method: The study consisted of one control group of 8 male CD Sprague Dawley rats (8-10-weeks old; obtained from Harlan, UK) and 4 test groups that contained 4 rats. Animals received powdered RM1 diet ad libitum for the duration of the study. […] All chemicals were dissolved in Mazola corn oil (at 2.5 mg/ml) and test compounds were administered at 10 ml/kg bodyweight. Control animal received Mazola corn oil only. All animals were sacrificed after 11 days. Animals were killed by exposure to rising concentrations of CO2, and blood was harvested into lithium/heparin tubes for plasma.
Rat plasma samples were denatured by adding acetonitrile, and the amount of perfluorooctanoic acid (PFOA) present was determined by LC/MS/MS.

[2] = 21-day diet study, bodyweights of SD rats; format: in vivo, rat; conditions: 300 ppm in diet, 21 days
Method: This experiment investigated the effect of compounds of different % linearity on body weight over a longer study period.
The diet study consisted of one control group of 4 male animals and 4 test groups of 4 male animals (as specified earlier in this Example). Animals received powdered RM1 diet alone, or RM1 diet containing 300 ppm XEN1001 or XEN1002, ad libitum for the duration of the study. Bodyweights were measured daily for 21 days.

Fold activation of PPAR alpha, positive control (PPAR alpha)	Structure (SMILES)	Plasma concentration of PFOA (free acid) [1]	Lost bodyweight up to day [2]	Weight loss compared with XEN1001 [2]
8.88 ± 1.94 fold	Cc1cccc(Nc2cc(Cl)nc(SCC(=O)O)n2)c1C [Wyeth14643]	–	–	–
–	N.O=C(O)C(F)(F)C(F)(F)C(F)(F)C(F)(F)C(F)(F)C(F)(F)C(F)(F)F [XEN1002, Ammoniumperfluorooctanoate]	equimolar concentrations of PFOA	10 days	more pronounced
